In PMC7459823, “Characterization of Five Novel Anti-MRSA Compounds Identified Using a Whole-Animal Caenorhabditis elegans/Galleria mellonella Sequential-Screening Approach” (Antibiotics, 2020):
Read-outs that look alike come from different tables or passages of the source.

Experiments:
[1] = test system: MRSA-MW2 infection of C. elegans; assay: C. elegans–MRSA-MW2 high-throughput screen (Z-score, alive versus dead worms); type: in vivo, Caenorhabditis elegans; settings: screening concentration 2.86 µg/mL, hits Z > 2
Description: The five compounds: (4,4′,4″-(4-propyl-[1H]-pyrazole-1,3,5-triyl)trisphenol, PPT; (1S,2S)-2-[2-[[3-(1H-benzimidazol-2-yl)propyl]methylamino]ethyl]-6-fluoro-1,2,3,4-tetrahydro-1-(1-methylethyl)-2- naphthalenyl cyclopropanecarboxylate dihydrochloride, NNC; 4,5,6,7-tetrabromobenzotriazole, TBB; 3-[2-[2-chloro-4-[3-(2,6-dichlorophenyl)-5-(1-methylethyl)-4-isoxazolyl]methoxy]phenyl] ethenyl] benzoic acid, GW4064; and N-(cyclopropylmethoxy)-3,4,5-trifluoro-2-[(4-iodo-2-methylphenyl)amino] benzamide, PD198306) were purchased from Tocris Bioscience at the following levels of purity: PPT: >99.7%, NNC: >98%, TBB: >99%, GW4064: >97%, and PD198306: 98.8%. […] Hits were identified based on Z-scores. Z-scores are calculated from the ratio of alive versus dead worms after treatment with test compounds and represents the number of standard deviations (SD) the test compound differs from the mean using the formula Z = (x − μ)/σ; where x is the raw sample score, μ is the mean of the population and σ is the standard deviation of the population. Samples with Z > 2σ are considered hits.

[2] = test system: MRSA MW2 infection of Galleria mellonella larvae; assay: G. mellonella–MRSA survival assay; type: in vivo; settings: larvae infected with MRSA MW2 5 × 10^5 CFU, compound 10 mg/kg 2 h after infection, monitored 120 h; untreated 1 day
Procedure: Larvae were infected with MRSA MW2 (5 × 10^5 CFU) in the left rear proleg, and after two hours, the compounds were introduced separately at 10 mg/kg into the right rear proleg and larvae survival was monitored for 120 h.
Assays were performed as described previously. Briefly, sixteen randomly selected G. mellonella larvae (Vanderhorst, Inc., St. Mary’s, OH, USA) between 300–350 mg were used for each test group. MRSA-MW2 was grown in Tryptic Soy Broth (TSB), washed with phosphate buffered saline (PBS, pH = 7.4), and diluted to OD600 = 0.3 before inoculation into G. mellonella larvae. A 10-μL inoculum was injected into the last left proleg using a 10-μL Hamilton syringe. After 2 h, compounds were administered into the last right proleg and larvae were incubated at 37 °C. G.mellonella survival was monitored for 120 h, and death was confirmed when there was no response. Killing curves and differences in survival were analyzed by the Kaplan–Meier method using GraphPad Prism version 8 (GraphPad Software, La Jolla, CA, USA). Statistical analysis (Kruskal–Wallis test) was carried out using the same program.

[3] = test system: MRSA MW2; assay: Broth microdilution antibacterial susceptibility (MIC/MBC), MRSA MW2; type: cell-based, Staphylococcus aureus; settings: for MBC: MRSA MW2
Procedure: (§1) In vitro antibacterial activities were determined using the broth microdilution method. Assays were performed as described in Clinical and Laboratory Standards Institute protocols in triplicate using cation-adjusted Muller–Hinton broth (Becton Dickinson and Company, Franklin Lakes, NJ, USA) in 96-well plates with a total assay volume of 100 µL. Two-fold serial dilutions of test compounds were prepared over the concentration range of 1–64 µg/mL. The bacterial concentration was adjusted to OD600 = 0.06. […] A 10 µL aliquot from each well in the MIC assays was plated onto Muller–Hinton agar (Becton Dickinson and Company, Franklin Lakes, NJ, USA) and incubated overnight at 37 °C. The lowest concentration of compound for which no growth was observed on agar plates was reported as the minimal bactericidal concentration (MBC).

[4] = test system: clinical S. aureus isolate BF1; assay: Broth microdilution MIC, clinical S. aureus isolate BF1; type: cell-based; settings: Staphylococcus aureus; BF1; read-out: MIC
Procedure: as §1

[5] = test system: clinical S. aureus isolate BF2; assay: Broth microdilution MIC, clinical S. aureus isolate BF2; type: cell-based; settings: Staphylococcus aureus; BF2; read-out: MIC
Procedure: as §1

[6] = test system: clinical S. aureus isolate BF3; assay: Broth microdilution MIC, clinical S. aureus isolate BF3; type: cell-based; settings: Staphylococcus aureus; BF3; read-out: MIC
Procedure: as §1

[7] = test system: clinical S. aureus isolate BF4; assay: Broth microdilution MIC, clinical S. aureus isolate BF4; type: cell-based; settings: Staphylococcus aureus; BF4; read-out: MIC
Procedure: as §1

[8] = test system: Enterococcus faecium; assay: Broth microdilution MIC, Enterococcus faecium; type: cell-based; settings: read-out: MIC
Procedure: as §1

[9] = test system: Klebsiella pneumoniae; assay: Broth microdilution MIC, Klebsiella pneumoniae; type: cell-based; settings: read-out: MIC
Procedure: as §1

[10] = test system: Acinetobacter baumannii; assay: Broth microdilution MIC, Acinetobacter baumannii; type: cell-based; settings: read-out: MIC
Procedure: as §1

[11] = test system: Enterobactor aerogens; assay: Broth microdilution MIC, Enterobactor aerogens; type: cell-based; settings: Enterobactor aerogens; read-out: MIC
Procedure: as §1

[12] = test system: Pseudomonas aeruginosa; assay: Broth microdilution MIC, Pseudomonas aeruginosa; type: cell-based; settings: read-out: MIC
Procedure: as §1

[13] = test system: MRSA MW2; assay: Sytox green membrane permeabilization; type: cell-based, Staphylococcus aureus; settings: compounds at 64 µg/mL, monitored over 1 h
Procedure: To determine whether the compounds target bacterial membranes, MRSA MW2 was treated with the compounds and uptake of the membrane-impermeable DNA-binding fluorescent dye Sytox green was monitored over 1 h (Figure 4).
Sytox Green (Life Technologies, Needham, MA, USA) membrane permeabilization assays were performed as previously described. The experiments were carried out in duplicate in 96-well plates. Cells were grown to log phase and were harvested by centrifuging at 3700× g for 5 min. The cells were washed twice with PBS and resuspended to OD600 = 0.2, following which 5 µM Sytox green was added to the cells and the bacteria-dye mixture were incubated in the dark for 30 mins.
Cell suspensions (50 µL) were added to 50 µL of test compounds (64 µg/mL in PBS) and fluorescence intensity was measured (excitation 485 nm, emission 530 nm) periodically over 60 min.

[14] = test system: MRSA-MW2; assay: Checkerboard synergy assay (FIC index); type: cell-based, Staphylococcus aureus; settings: synergy FIC ≤ 0.5
Procedure: The combination of two antibiotics with different modes of action can reduce bacterial resistance and sometimes even restore clinical efficacy of an antibiotic that has lost effectiveness. The five compounds were tested against MRSA-MW2 in the presence of five clinical antibiotics from different classes (i.e., polymyxin B, gentamycin, erythromycin, doxycycline, and oxacillin).
Antibacterial synergy for combinations of the compounds with each other and with clinical antibiotics (doxycycline, gentamicin, polymyxin-B, oxacillin, and erythromycin) was measured using checkerboard assays. In short, Cultures of MRSA-MW2 were adjusted to OD600 = 0.06 and one compound was arrayed horizontally and other vertically in 96 well plates. The assays were carried out in triplicate, exactly as described for the antibacterial susceptibility assays. The inhibitory effects of compound combinations were evaluated using the Fractional Inhibitory Concentration (FIC) index, derived from the formula:FIC index = FICA + FICB = [A]/MICA + [B]/MICB
MIC of substance A tested in combination /MIC of substance A tested alone + MIC of substance B tested in combination/MIC of substance B tested alone. Synergy is indicated when FIC ≤ 0.5, indifference when 0.5 ≤ FIC ≤ 4, and antagonism when FIC > 4. Experiments were performed in duplicate and report the average FIC index.

[15] = test system: Cav3.1 T-type channels; set-up: method as in PMID 14718587; settings: INS-1 cells; read-out: IC50 for inhibition of Cav3.1 T-type channels; cited from earlier work
[16] = test system: HVA currents; set-up: method as in PMID 14718587; settings: INS-1 cells; read-out: IC50 for inhibition of HVA currents; cited from earlier work
[17] = test system: A549; assay: MTT cytotoxicity, A549; settings: A549, 24 hr
Procedure: (§2) Mammalian cell lines HepG2 (hepatic cells), A549 (epithelial cells), and MKN-28 (gastric cells) were used to measure the anti-proliferative properties of test compounds, as described elsewhere [28]. Cells were grown in Dulbecco’s Modified Eagle Medium (DMEM) (Gibco, Waltham, MA, USA) supplemented with 10% Fetal Bovine Serum (FBS) (Gibco, Waltham, MA, USA) and 1% penicillin/streptomycin (Gibco, Waltham, MA, USA) and maintained at 37 °C in 5% CO2. After harvesting, the cells were suspended in DMEM and 100 µL was added to the wells of 96-well plates. The test compounds were serially diluted in serum and antibiotic free DMEM, added to the monolayer of cells, and incubated at 37 °C in 5% CO2 for 24 hr. Percentage survival was calculated by comparison to DMSO-treated vehicle controls. Assays were carried out in triplicate.

[18] = test system: HepG2; assay: MTT cytotoxicity, HepG2; settings: HepG2, 24 hr
Procedure: as §2

[19] = test system: MKN-28; assay: MTT cytotoxicity, MKN-28; settings: MKN-28, 24 hr
Procedure: as §2

In the case of `CC(C)[C@H]1c2ccc(F)cc2CC[C@@]1(CCN(C)CCCc1nc2ccccc2[nH]1)OC(=O)C1CC1.Cl.Cl` [NNC, (1S,2S)-2-[2-[[3-(1H-Benzimidazol-2-yl)propyl]methylamino]ethyl]-6-fluoro-1,2,3,4-tetrahydro-1-(1-methylethyl)-2-naphthalenyl cyclopropanecarboxylate dihydrochloride], the Z-Score [1] is reported as 5.83, the median post-infection survival [2] is reported as 2 days and the MBC [3] is reported as >64 µg/mL. The MIC ([3]; Staphylococcus aureus, MRSA MW2, 18 h, 37 °C, read-out: MIC) was 8 µg/mL, the MBC ([3]; Staphylococcus aureus, read-out: MBC) was > 64 µg/mL and the MIC [4] was 4 µg/mL. The MIC [5] was 2 µg/mL, the MIC [6] was 4 µg/mL and the MIC [7] was 4 µg/mL. For the same molecule, the MIC [8] was 8 µg/mL, the MIC [9] was > 64 µg/mL and the MIC [10] was > 64 µg/mL. The MIC [11] was > 64 µg/mL, the MIC [12] was > 64 µg/mL and the “cellular fluorescence (Sytox green uptake)” value [13] was “increases in cellular fluorescence”. The “Fractional Inhibitory Concentration (FIC) Index” value ([14]; with Doxycycline) was 0.75, the “Fractional Inhibitory Concentration (FIC) Index” value ([14]; with Erythromycin) was 1.0 and the “Fractional Inhibitory Concentration (FIC) Index” value ([14]; with Gentamycin) was 0.75. For the same molecule, the “Fractional Inhibitory Concentration (FIC) Index” value ([14]; with Oxacillin) was 2.0, the “Fractional Inhibitory Concentration (FIC) Index” value ([14]; with Polymyxin B) was 0.5 and the IC50 [15] was 6.8 µM. The IC50 [16] was > 100 µM, the Eukaryotic cell cytotoxicity [17] was 16 µg/mL and the Eukaryotic cell cytotoxicity [18] was 2 µg/mL. For the same molecule, the Eukaryotic cell cytotoxicity [19] was 8 µg/mL.
